# From US20240092784A1, “CONDENSED HETEROCYCLIC COMPOUND” (NISSAN CHEMICAL CORPORATION, priority 2020, published 2024)
# pIC50: −log10 of the molar value. Where a name gives a salt, the structure may show the parent alone.
# Molecular target: human SPR (Homo sapiens (Human), UniProt P35270)
# Assay: Evaluation Example 2: Measurement of human SPR inhibitory activity (seven concentrations, sepiapterin absorbance at 420 nm)
# Assay type: biochemical
# Details: Evaluation Example 2, seven concentrations 0.14 nM to 100 nM, 240 minutes at room temperature, read-out: IC50
# Summary of the method: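 Reactions ran 240 min at room temperature in 100 mM Tris-HCl pH 7.5 with 0.01% BSA. They contained tag-cleaved, E. coli-expressed full-length human SPR (diluted to 150 ng/mL), seven compound concentrations from 0.14 to 100 nM, and sepiapterin/NADPH added as a 120 μM/160 μM solution. Inhibition was calculated from sepiapterin absorbance at 420 nm.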
# human SPR, sequence (P35270 whole entry): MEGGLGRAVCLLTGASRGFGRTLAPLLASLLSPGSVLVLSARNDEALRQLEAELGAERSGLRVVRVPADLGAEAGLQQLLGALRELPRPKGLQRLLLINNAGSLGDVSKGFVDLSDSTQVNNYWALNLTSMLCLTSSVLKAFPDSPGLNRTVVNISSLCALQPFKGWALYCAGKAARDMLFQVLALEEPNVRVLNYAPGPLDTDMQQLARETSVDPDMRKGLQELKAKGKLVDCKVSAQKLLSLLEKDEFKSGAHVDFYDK
row,Structure (SMILES),pIC50
1,"CC(C)(C)Cn1c(=O)c(C(=O)NC2CC2)c(O)n2nc(N)c(Cl)c12 [compound 447, 2-Amino-3-chloro-N-cyclopropyl-7-hydroxy-4-neopentyl-5-oxo-4,5-dihydropyrazolo[1,5-a]pyrimidine-6-carboxamide hydrochloride]",8.67
2,"CC(C)(C)Cn1c(=O)c(C(=O)NC2CC2)c(O)n2nc(-c3cccnc3N)c(Br)c12 [compound 448, 2-(2-Aminopyridin-3-yl)-3-bromo-N-cyclopropyl-7-hydroxy-4-neopentyl-5-oxo-4,5-dihydropyrazolo[1,5-a]pyrimidine-6-carboxamide]",8.09
3,"CC(C)Cn1c(=O)c(C(=O)NC2CC2)c(O)n2nc(-c3cccnc3N)c(/C=C/C(=O)N3CCOCC3)c12 [compound 449, (E)-2-(2-Aminopyridin-3-yl)-N-cyclopropyl-7-hydroxy-4-isobutyl-3-(3-morpholino-3-oxoprop-1-en-1-yl)-5-oxo-4,5-dihydropyrazolo[1,5-a]pyrimidine-6-carboxamide]",9.08
4,"CC(C)Cn1c(=O)c(C(=O)NC2CC2)c(O)n2nc(C(N)=O)c(/C=C/C(=O)N3CCOCC3)c12 [compound 450, (E)-N6-Cyclopropyl-7-hydroxy-4-isobutyl-3-(3-morpholino-3-oxoprop-1-en-1-yl)-5-oxo-4,5-dihydropyrazolo[1,5-a]pyrimidine-2,6-dicarboxamide]",9.22
5,"CC(C)Cn1c(=O)c(C(=O)NC2CC2)c(O)n2nc(C(N)=O)c(/C=C/C3CCOCC3)c12 [compound 451, (E)-N6-Cyclopropyl-7-hydroxy-4-isobutyl-5-oxo-3-(2-(tetrahydro-2H-pyran-4-yl)vinyl)-4,5-dihydropyrazolo[1,5-a]pyrimidine-2,6-dicarboxamide]",9.16
6,"CC(C)Cn1c(=O)c(C(=O)NC2CC2)c(O)n2ncc(/C=C/C(=O)N3CCCC3)c12 [compound 452, (E)-N-Cyclopropyl-7-hydroxy-4-isobutyl-5-oxo-3-(3-oxo-3-(pyrrolidin-1-yl)prop-1-en-1-yl)-4,5-dihydropyrazolo[1,5-a]pyrimidine-6-carboxamide]",9.08
7,"CC(C)Cn1c(=O)c(C(=O)NC2CC2)c(O)n2ncc(/C=C/C(=O)N3CCC(F)(F)C3)c12 [compound 453, (E)-N-Cyclopropyl-3-(3-(3,3-difluoropyrrolidin-1-yl)-3-oxoprop-1-en-1-yl)-7-hydroxy-4-isobutyl-5-oxo-4,5-dihydropyrazolo[1,5-a]pyrimidine-6-carboxamide]",9.09
8,"CC(C)Cn1c(=O)c(C(=O)NC2CC2)c(O)n2ncc(/C=C/C(=O)N3CC[C@H](F)C3)c12 [compound 454, (S,E)-N-Cyclopropyl-3-(3-(3-fluoropyrrolidin-1-yl)-3-oxoprop-1-en-1-yl)-7-hydroxy-4-isobutyl-5-oxo-4,5-dihydropyrazolo[1,5-a]pyrimidine-6-carboxamide]",9.12
9,"CC(C)Cn1c(=O)c(C(=O)NC2CC2)c(O)n2ncc(/C=C/C(=O)N3CCOC[C@@H]3C)c12 [compound 455, (S,E)-N-Cyclopropyl-7-hydroxy-4-isobutyl-3-(3-(3-methylmorpholino)-3-oxoprop-1-en-1-yl)-5-oxo-4,5-dihydropyrazolo[1,5-a]pyrimidine-6-carboxamide]",9.14
10,"CC(C)Cn1c(=O)c(C(=O)NC2CC2)c(O)n2ncc(/C=C/C(=O)N3CC4CCC(C3)O4)c12 [compound 456, (E)-3-(3-(8-Oxa-3-azabicyclo[3.2.1]octan-3-yl)-3-oxoprop-1-en-1-yl)-N-cyclopropyl-7-hydroxy-4-isobutyl-5-oxo-4,5-dihydropyrazolo[1,5-a]pyrimidine-6-carboxamide]",9.24
11,"CC(C)Cn1c(=O)c(C(=O)NC2CC2)c(O)n2ncc(/C=C/C(=O)N3[C@@H](C)COC[C@@H]3C)c12 [compound 457, N-Cyclopropyl-3-((E)-3-((3S,5S)-3,5-dimethylmorpholino)-3-oxoprop-1-en-1-yl)-7-hydroxy-4-isobutyl-5-oxo-4,5-dihydropyrazolo[1,5-a]pyrimidine-6-carboxamide]",9.09
12,"CC(C)Cn1c(=O)c(C(=O)NC2CC2)c(O)n2ncc(/C=C/C(=O)N3CCC[C@@H]3C)c12 [compound 458, (S,E)-N-Cyclopropyl-7-hydroxy-4-isobutyl-3-(3-(2-methylpyrrolidin-1-yl)-3-oxoprop-1-en-1-yl)-5-oxo-4,5-dihydropyrazolo[1,5-a]pyrimidine-6-carboxamide]",9.10
13,"CC(C)Cn1c(=O)c(C(=O)NC2CC2)c(O)n2ncc(/C=C/C(=O)N3CCOCC3(C)C)c12 [compound 459, (E)-N-Cyclopropyl-3-(3-(3,3-dimethylmorpholino)-3-oxoprop-1-en-1-yl)-7-hydroxy-4-isobutyl-5-oxo-4,5-dihydropyrazolo[1,5-a]pyrimidine-6-carboxamide]",9.13
14,"CC(C)Cn1c(=O)c(C(=O)NC2CC2)c(O)n2ncc(/C=C/C(=O)N3CCN(C4CC(F)(F)C4)CC3)c12 [compound 460, (E)-N-Cyclopropyl-3-(3-(4-(3,3-difluorocyclobutyl)piperazin-1-yl)-3-oxoprop-1-en-1-yl)-7-hydroxy-4-isobutyl-5-oxo-4,5-dihydropyrazolo[1,5-a]pyrimidine-6-carboxamide]",8.91
15,"CC(C)Cn1c(=O)c(C(=O)NC2CC2)c(O)n2ncc(/C=C/C(=O)N3CCCOCC3)c12 [compound 461, (E)-3-(3-(1,4-Oxazepan-4-yl)-3-oxoprop-1-en-1-yl)-N-cyclopropyl-7-hydroxy-4-isobutyl-5-oxo-4,5-dihydropyrazolo[1,5-a]pyrimidine-6-carboxamide]",9.12
16,"CC(C)Cn1c(=O)c(C(=O)NC2CC2)c(O)n2ncc(/C=C/C(=O)N3CCN(C(C)C)CC3)c12 [compound 462, (E)-N-Cyclopropyl-7-hydroxy-4-isobutyl-3-(3-(4-isopropylpiperazin-1-yl)-3-oxoprop-1-en-1-yl)-5-oxo-4,5-dihydropyrazolo[1,5-a]pyrimidine-6-carboxamide]",9.02

# Same assay, conditions: sepiapterin absorbance, Table 41, read-out: concentration at 50% inhibition of human SPR (IC50)
row,Structure (SMILES),pIC50
1,"CC(C)Cn1c(=O)c(C(=O)NC2CC2)c(O)n2ncc(/C=C/C(=O)N3CCCC34CCN(C(C)C)CC4)c12 [Synthesis Example 746, (E)-N-Cyclopropyl-7-hydroxy-4-isobutyl-3-(3-(8-isopropyl-1,8-diazaspiro[4.5]decan-1-yl)-3-oxoprop-1-en-1-yl)-5-oxo-4,5-dihydropyrazolo[1,5-a]pyrimidine-6-carboxamide]",8.81
2,"Cc1nn2c(O)c(C(=O)NC3CC3)c(=O)n(CC(C)(C)F)c2c1/C=C/C(=O)N1CCOCC1 [Synthesis Example 747, (E)-N-Cyclopropyl-4-(2-fluoro-2-methylpropyl)-7-hydroxy-2-methyl-3-(3-morpholino-3-oxoprop-1-en-1-yl)-5-oxo-4,5-dihydropyrazolo[1,5-a]pyrimidine-6-carboxamide]",9.13
3,"CC(C)Cn1c(=O)c(C(=O)NC2CC2)c(O)n2ncc(/C=C/C(=O)N3CCC[C@@H]3c3cccnc3)c12 [Synthesis Example 748, (R,E)-N-Cyclopropyl-7-hydroxy-4-isobutyl-5-oxo-3-(3-oxo-3-(2-(pyridin-3-yl)pyrrolidin-1-yl)prop-1-en-1-yl)-4,5-dihydropyrazolo[1,5-a]pyrimidine-6-carboxamide]",9.00
4,"Cc1nn2c(O)c(C(=O)NC3CC3)c(=O)n(CC(C)C)c2c1/C=C/C(=O)N1CCC[C@@H]1C#N [Synthesis Example 749, (R,E)-3-(3-(2-Cyanopyrrolidin-1-yl)-3-oxoprop-1-en-1-yl)-N-cyclopropyl-7-hydroxy-4-isobutyl-2-methyl-5-oxo-4,5-dihydropyrazolo[1,5-a]pyrimidine-6-carboxamide]",9.03
5,"COCCN(C)C(=O)/C=C/c1c(C)nn2c(O)c(C(=O)NC3CC3)c(=O)n(CC(C)C)c12 [Synthesis Example 750, (E)-N-Cyclopropyl-7-hydroxy-4-isobutyl-3-(3-((2-methoxyethyl)(methyl)amino)-3-oxoprop-1-en-1-yl)-2-methyl-5-oxo-4,5-dihydropyrazolo[1,5-a]pyrimidine-6-carboxamide]",9.02
6,"CCN1CCN(C(=O)/C=C/c2c(C)nn3c(O)c(C(=O)NC4CC4)c(=O)n(CC(C)C)c23)[C@H](C)C1 [Synthesis Example 751, (R,E)-N-Cyclopropyl-3-(3-(4-ethyl-2-methylpiperazin-1-yl)-3-oxoprop-1-en-1-yl)-7-hydroxy-4-isobutyl-2-methyl-5-oxo-4,5-dihydropyrazolo[1,5-a]pyrimidine-6-carboxamide]",8.87
7,"Cc1nn2c(O)c(C(=O)NC3CC3)c(=O)n(CC(C)C)c2c1/C=C/C(=O)N1CCc2cncnc21 [Synthesis Example 752, (E)-N-Cyclopropyl-3-(3-(5,6-dihydro-7H-pyrrolo[2,3-d]pyrimidin-7-yl)-3-oxoprop-1-en-1-yl)-7-hydroxy-4-isobutyl-2-methyl-5-oxo-4,5-dihydropyrazolo[1,5-a]pyrimidine-6-carboxamide]",9.06
8,"Cc1nn2c(O)c(C(=O)NC3CC3)c(=O)n(CC(C)C)c2c1/C=C/C(=O)N1C[C@@H]2C[C@H]1CO2 [Synthesis Example 753, 3-((E)-3-((1S,4S)-2-Oxa-5-azabicyclo[2.2.1]heptan-5-yl)-3-oxoprop-1-en-1-yl)-N-cyclopropyl-7-hydroxy-4-isobutyl-2-methyl-5-oxo-4,5-dihydropyrazolo[1,5-a]pyrimidine-6-carboxamide]",9.32
9,"Cc1nn2c(O)c(C(=O)NC3CC3)c(=O)n(CC(C)C)c2c1/C=C/C(=O)N1C[C@H]2C[C@@H]1CO2 [Synthesis Example 754, 3-((E)-3-((1R,4R)-2-Oxa-5-azabicyclo[2.2.1]heptan-5-yl)-3-oxoprop-1-en-1-yl)-N-cyclopropyl-7-hydroxy-4-isobutyl-2-methyl-5-oxo-4,5-dihydropyrazolo[1,5-a]pyrimidine-6-carboxamide]",9.08
